Results reported in US11040028B2, “Penicinotam derivative, preparation method and use thereof” (OCEAN UNIVERSITY OF CHINA, priority 2017, dated 2021).

Tests used:
Type in all cases: cell-based
[1] = tested on: human fibrosarcoma cells HT-1080; experiment: Anti-fibrosis activity test: inhibition of proliferation of human fibrosarcoma cells HT-1080 (CCK-8); details: Homo sapiens, HT-1080, 48 h, human fibrosarcoma cells HT-1080, CCK-8, 48 hours
How it was run: (§1)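 48 h compound treatment of fibroblast-type cells seeded at 2×10^4 cells/mL, 37° C, 5% CO2; viability by CCK-8 (2 h, A450). Inhibition rate calculated against blank control, IC50 by curve fitting; pirfenidone served as reference.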

BHK-21 cells = experiment: Anti-fibrosis activity test: inhibition of BHK-21 cell proliferation (CCK-8); details: Mesocricetus auratus, BHK-21, 48 h, CCK-8, 48 hours after administration
How it was run: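 Read-out: CCK-8 absorbance at 450 nm after 2 h, giving proliferation inhibition (1−Ai/Ao)×100% versus blank control, from which IC50 was derived. Cells had been treated with compounds for 48 h after 24 h adherence at 37° C. Pirfenidone served as positive control.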

[2] = tested on: human embryonic lung fibroblast IMR-90; experiment: Anti-fibrosis activity test: inhibition of proliferation of human embryonic lung fibroblast IMR-90 (CCK-8); details: human embryonic lung fibroblast IMR-90, CCK-8, 48 hours
How it was run: as §1

[3] = tested on: cardiac fibroblast RAT-iCell-C002; experiment: Anti-fibrosis activity test: inhibition of proliferation of cardiac fibroblast RAT-iCell-C002 (CCK-8); details: Cardiac fibroblast, 48 h, cardiac fibroblast RAT-iCell-C002, CCK-8, 48 hours
How it was run: as §1

[4] = tested on: mouse macrophages (RAW264.7); experiment: Lipopolysaccharide-induced NO secretion in macrophages (Griess); details: Mus musculus, RAW264.7, 24 h, RAW264.7, LPS 1 μg/ml, a/b isomers given as first/second symbol, read-out: IC50 (μM), inhibition of lipopolysaccharide-induced NO secretion in macrophages
How it was run: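 RAW264.7 macrophages in DMEM with 10% FBS received test samples at several concentrations and were stimulated with 1 μg/ml LPS for 24 h. NO in the supernatant was measured with the Griess reagent at 548 nm, […].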

NF-κB = experiment: Immunological activity test: inhibition of NF-κB activity; details: initial concentration of 30 μM; a/b isomers given as first/second symbol; read-out: IC50 (μM), inhibitory activity against NF-κB
How it was run: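 Compounds were first screened for inhibition of NF-κB activity at 30 μM, with parthenolide as the positive control. IC50 values were then determined for the compounds by further analysis of the assay data.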

[5] = tested on: human lung fibroblasts HFL1; experiment: Anti-fibrosis activity test: inhibition of proliferation of human lung fibroblasts HFL1 (CCK-8); details: Homo sapiens, HFL1, 48 h, human lung fibroblasts HFL1, CCK-8, 48 hours
How it was run: as §1

[6] = tested on: human hepatic stellate cells LX-2; experiment: Anti-fibrosis activity test: inhibition of proliferation of human hepatic stellate cells LX-2 (CCK-8); details: Homo sapiens, 48 h, human hepatic stellate cells LX-2, CCK-8, 48 hours
How it was run: as §1

[7] = tested on: human dermal fibroblasts CCC-ESF-1; experiment: Anti-fibrosis activity test: inhibition of proliferation of human dermal fibroblasts CCC-ESF-1 (CCK-8); details: Fibroblast; human dermal fibroblasts CCC-ESF-1, CCK-8, 48 hours
How it was run: as §1

Row | Compound | IC50 [1] [mM] | IC50 (BHK-21 cells) [mM] | IC50 [2] [mM] | IC50 [3] [mM] | IC50 [4] [µM] | IC50 (NF-κB) [µM] | IC50 [5] [mM] | IC50 [6] [mM] | IC50 [7] [mM]
1 | O=C1c2c(n(CCN3CCNCC3)c3ccccc3c2=O)-c2cccn21 [Compound 98a, 4-(2-(Piperazin-1-yl)ethyl)-9H-pyrrolizino[1,2-b]quinoline-9,10(4H)-dione] | 0.05 to 5 | < 0.05 | < 0.05 | 0.05 to 5 | 1 to 10 | 1 to 10 | 0.05 to 5 | < 0.05 | < 0.05
2 | O=C1c2c(nc3ccccc3c2OCCN2CCNCC2)-c2cccn21 [Compound 98b, 9-(2-(piperazin-1-yl)ethoxy)-10H-pyrrolizino[1,2-b]quinolin-10-one] | 0.05 to 5 | 0.05 to 5 | 0.05 to 5 | 0.05 to 5 | 1 to 10 | 1 to 10 | 0.05 to 5 | 0.05 to 5 | 0.05 to 5
3 | O=C(O)Cn1c2c(c(=O)c3ccccc31)C(=O)n1cccc1-2 [Compound 100a, 2-(9,10-Dioxo-9H-pyrrolizino[1,2-b]quinolin-4(10H)-yl)acetic acid] | 0.05 to 5 | 0.05 to 5 | 0.05 to 5 | 0.05 to 5 | 0.1 to 1 | 1 to 10 | < 0.05 | 0.05 to 5 | 0.05 to 5
4 | O=C(O)COc1c2c(nc3ccccc13)-c1cccn1C2=O [Compound 100b, 2-((10-oxo-10H-pyrrolizino[1,2-b]quinolin-9-yl)oxy)acetic acid] | 0.05 to 5 | 0.05 to 5 | 0.05 to 5 | 0.05 to 5 | 1 to 10 | 1 to 10 | 0.05 to 5 | 0.05 to 5 | 0.05 to 5
5 | O=C1c2c(n(Cc3ccccc3)c3ccccc3c2=O)-c2cccn21 [Compound 103a, 4-Benzyl-9H-pyrrolizino[1,2-b]quinoline-9,10(4H)-dione] | 0.05 to 5 | 0.05 to 5 | < 0.05 | 0.05 to 5 | 0.1 to 1 | 1 to 10 | 0.05 to 5 | 0.05 to 5 | 0.05 to 5
6 | O=C1c2c(nc3ccccc3c2OCc2ccccc2)-c2cccn21 [Compound 103b, 9-(benzyloxy)-10H-pyrrolizino[1,2-b]quinolin-10-one] | 0.05 to 5 | 0.05 to 5 | < 0.05 | 0.05 to 5 | 1 to 10 | 1 to 10 | 0.05 to 5 | 0.05 to 5 | 0.05 to 5
7 | CC(C)=CCn1c2c(c(=O)c3cc(F)ccc31)C(=O)n1cccc1-2 [Compound 112a, 7-Fluoro-4-(3-methylbut-2-en-1-yl)-9H-pyrrolizino[1,2-b]quinoline-9,10(4H)-dione] | 0.05 to 5 | 5 to 20 | 0.05 to 5 | 0.05 to 5 | 1 to 10 | 10 to 50 | 0.05 to 5 | 0.05 to 5 | 0.05 to 5
8 | CC(C)=CCOc1c2c(nc3ccc(F)cc13)-c1cccn1C2=O [Compound 112b, 7-fluoro-9-((3-methylbut-2-en-1-yl)oxy)-10H-pyrrolizino[1,2-b]quinolin-10-one] | 0.05 to 5 | 0.05 to 5 | 0.05 to 5 | 0.05 to 5 | 1 to 10 | 1 to 10 | 0.05 to 5 | 0.05 to 5 | 0.05 to 5
9 | O=C1c2c(n(CCc3ccccc3)c3ccc(F)cc3c2=O)-c2cccn21 [Compound 141a, 7-Fluoro-4-phenethyl-9H-pyrrolizino[1,2-b]quinoline-9,10(4H)-dione] | 0.05 to 5 | 0.05 to 5 | 0.05 to 5 | 0.05 to 5 | 1 to 10 | 1 to 10 | 0.05 to 5 | 0.05 to 5 | < 0.05
10 | O=C1c2c(nc3ccc(F)cc3c2OCCc2ccccc2)-c2cccn21 [Compound 141b, 7-Fluoro-9-phenethoxy-10H-pyrrolizino[1,2-b]quinolin-10-one] | 0.05 to 5 | 0.05 to 5 | 0.05 to 5 | 0.05 to 5 | 1 to 10 | 0.1 to 1 | 0.05 to 5 | 0.05 to 5 | 5 to 20
11 | Cn1c2c(c(=O)c3cc(F)ccc31)C(=O)n1cccc1-2 [Compound 157a, 7-Fluoro-4-methyl-9H-pyrrolizino[1,2-b]quinoline-9,10(4H)-dione] | 0.05 to 5 | 5 to 20 | 0.05 to 5 | 0.05 to 5 | 0.1 to 1 | 10 to 50 | 0.05 to 5 | 0.05 to 5 | 0.05 to 5
12 | COc1c2c(nc3ccc(F)cc13)-c1cccn1C2=O [Compound 157b, 7-fluoro-9-methoxy-10H-pyrrolizino[1,2-b]quinolin-10-one] | 0.05 to 5 | 0.05 to 5 | 0.05 to 5 | 0.05 to 5 | 1 to 10 | 0.1 to 1 | 0.05 to 5 | 0.05 to 5 | 0.05 to 5
13 | N#Cc1ccc2[nH]c3c(c(=O)c2c1)C(=O)n1cccc1-3 [Compound 222a, 9,10-Dioxo-4,10-dihydro-9H-pyrrolizino[1,2-b]quinoline-7-carbonitrile] | 0.05 to 5 | 0.05 to 5 | 0.05 to 5 | 0.05 to 5 | 1 to 10 | 1 to 10 | 0.05 to 5 | 0.05 to 5 | 0.05 to 5
14 | N#Cc1ccc2nc3c(c(O)c2c1)C(=O)n1cccc1-3 [Compound 222b, 9-hydroxy-10-oxo-10H-pyrrolizino[1,2-b]quinoline-7-carbonitrile] | 0.05 to 5 | 0.05 to 5 | 0.05 to 5 | 0.05 to 5 | 1 to 10 | 1 to 10 | 0.05 to 5 | 0.05 to 5 | 0.05 to 5
15 | O=C1c2c([nH]c3ccc(Br)cc3c2=O)-c2cccn21 [Compound 246a, 7-Bromo-9H-pyrrolizino[1,2-b]quinoline-9,10(4H)-dione] | 0.05 to 5 | 5 to 20 | 0.05 to 5 | 0.05 to 5 | 1 to 10 | 1 to 10 | 0.05 to 5 | 0.05 to 5 | 0.05 to 5
16 | O=C1c2c(nc3ccc(Br)cc3c2O)-c2cccn21 [Compound 246b, 7-bromo-9-hydroxy-10H-pyrrolizino[1,2-b]quinolin-10-one] | 0.05 to 5 | 0.05 to 5 | 0.05 to 5 | 0.05 to 5 | 1 to 10 | 1 to 10 | 0.05 to 5 | 0.05 to 5 | 0.05 to 5
17 | O=C(O)Cn1c2c(c(=O)c3cc(C(F)(F)F)ccc31)C(=O)n1cccc1-2 [Compound 279a, 2-(9,10-dioxo-7-(trifluoromethyl)-9H-pyrrolizino[1,2-b]quinolin-4(10H)-yl)acetic acid] | 0.05 to 5 | 0.05 to 5 | 0.05 to 5 | 0.05 to 5 | 1 to 10 | 1 to 10 | 0.05 to 5 | 0.05 to 5 | 0.05 to 5
18 | O=C(O)COc1c2c(nc3ccc(C(F)(F)F)cc13)-c1cccn1C2=O [Compound 279b, 2-((10-Oxo-7-(trifluoromethyl)-10H-pyrrolizino[1,2-b]quinolin-9-yl)oxy)acetic acid] | 0.05 to 5 | 0.05 to 5 | 0.05 to 5 | 0.05 to 5 | 0.1 to 1 | 1 to 10 | 0.05 to 5 | 0.05 to 5 | 0.05 to 5
19 | O=C1c2c([nH]c3ccc(C(F)(F)F)cc3c2=O)-c2cccn21 [Compound 282a, 7-(Trifluoromethyl)-9H-pyrrolizino[1,2-b]quinoline-9,10(4H)-dione] | 0.05 to 5 | 0.05 to 5 | 0.05 to 5 | 0.05 to 5 | 1 to 10 | 1 to 10 | 0.05 to 5 | 0.05 to 5 | 0.05 to 5
20 | O=C1c2c(nc3ccc(C(F)(F)F)cc3c2O)-c2cccn21 [Compound 282b, 9-hydroxy-7-(trifluoromethyl)-10H-pyrrolizino[1,2-b]quinolin-10-one] | 0.05 to 5 | 0.05 to 5 | 0.05 to 5 | 0.05 to 5 | 10 to 50 | 1 to 10 | 0.05 to 5 | 0.05 to 5 | 0.05 to 5
